Molecules are shown by their SMILES.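 96-well plates; 48 h exposure; 5 concentrations. Endpoints by linear interpolation between flanking doses. Not reached: highest tested concentration assigned. TGI denotes the concentration required for complete inhibition of growth.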

These results are taken from PubChem BioAssay (NCI).

Some test systems named below: SK-OV-3 ovarian; 786-0 renal; CAKI-1 renal; KM12 colon; OVCAR-3 ovarian; MCF7 breast; OVCAR-4 ovarian; SK-MEL-28 melanoma; UO-31 renal; COLO 205 colon.
What all share (assay): DTP human tumour cell line panel, 48 h

For the compound `c1ccc2sc(C3(N4CCCC4)CCCCCC3)cc2c1`, the total growth inhibition concentration (TGI) – broadly, the concentration giving total growth inhibition – came to 35 µM in the assay with SK-OV-3 ovarian; 27.7 µM with 786-0 renal; 61.2 µM with CAKI-1 renal; 26.3 µM with KM12 colon; 27.6 µM in the assay with OVCAR-3 ovarian; 33.2 µM in the assay on MCF7 breast. In addition, the total growth inhibition concentration (TGI) in the assay on OVCAR-4 ovarian was 31.8 µM; in the assay with SK-MEL-28 melanoma, 37.9 µM; with UO-31 renal, 26 µM; with COLO 205 colon, 30.4 µM.
Take `O=C(O)/C=N\Nc1nc2ccccc2[nH]1`: the total growth inhibition concentration (TGI) in the assay with SK-OV-3 ovarian, with 786-0 renal, in the assay on CAKI-1 renal, in the assay on KM12 colon, in the assay with OVCAR-3 ovarian and in the assay on MCF7 breast was above 100 µM in each case. Besides, the TGI in the assay on OVCAR-4 ovarian, in the assay with SK-MEL-28 melanoma, with UO-31 renal and in the assay on COLO 205 colon was above 100 µM each time.
For the compound `COc1ccc(C(C)NNC(=O)c2ccncc2)c(OC)c1` (stereo not given), the TGI in the assay with SK-OV-3 ovarian, in the assay with 786-0 renal, with CAKI-1 renal, in the assay with KM12 colon, in the assay on OVCAR-3 ovarian and in the assay with MCF7 breast was above 100 µM in each case. Moreover, the TGI in the assay with OVCAR-4 ovarian, in the assay on SK-MEL-28 melanoma, in the assay with UO-31 renal and with COLO 205 colon was above 100 µM in each case.
Regarding `C[C@]12CC[C@H](O)CC1=CC[C@@H]1[C@@H]2CC[C@]2(C)C(=O)[C@@H](N3CCOCC3)C[C@@H]12`, the TGI in the assay on SK-OV-3 ovarian, in the assay on 786-0 renal, with CAKI-1 renal, in the assay on KM12 colon, in the assay with OVCAR-3 ovarian and in the assay on MCF7 breast was above 100 µM throughout. The TGI with OVCAR-4 ovarian, in the assay on SK-MEL-28 melanoma, in the assay on UO-31 renal and with COLO 205 colon was above 100 µM in each case.
Regarding `O=c1[nH]c(-c2ccc3ccccc3c2)nc2ccccc12`, the TGI in the assay with SK-OV-3 ovarian, in the assay with 786-0 renal, with CAKI-1 renal, in the assay on KM12 colon, in the assay with OVCAR-3 ovarian and in the assay on MCF7 breast was above 100 µM in each case. For the same compound, the concentration for total growth inhibition (TGI) with OVCAR-4 ovarian is 9.73 µM; in the assay with SK-MEL-28 melanoma, above 100 µM; with UO-31 renal, 60.9 µM; with COLO 205 colon, above 100 µM.
In the case of `O=[N+]([O-])c1cc2oc(COc3ccccc3)nc2cc1Cl`, the TGI in the assay with SK-OV-3 ovarian is 59.9 µM; in the assay with 786-0 renal, above 100 µM; in the assay with CAKI-1 renal, 67.6 µM; with KM12 colon it was 51.3 µM; with OVCAR-3 ovarian, 48.2 µM; in the assay on MCF7 breast it was above 100 µM. Also, the concentration for total growth inhibition (TGI) is above 100 µM in the assay with OVCAR-4 ovarian, above 100 µM with SK-MEL-28 melanoma, 66 µM with UO-31 renal and 36.6 µM with COLO 205 colon.
In the case of `C=C1C[C@@H]2O[C@H]3[C@H]4[C@@H](C[C@@H](C)[C@@H](OC(C)=O)[C@H]42)[C@@H](C)CO[C@@]3(C)[C@H](OC(C)=O)C[C@H]1O`, the TGI with SK-OV-3 ovarian, with 786-0 renal, with CAKI-1 renal, with KM12 colon, with OVCAR-3 ovarian and with MCF7 breast was above 100 µM throughout. Further, the total growth inhibition concentration (TGI) with OVCAR-4 ovarian, with SK-MEL-28 melanoma, in the assay with UO-31 renal and in the assay with COLO 205 colon was above 100 µM in each case.
With `COc1ccc(CC2c3cc(Oc4cc(CC5c6cc(OC)c(OC)cc6CCN5C)ccc4O)c(OC)cc3CCN2C)cc1` (stereo not given), the total growth inhibition concentration (TGI) with SK-OV-3 ovarian is 16.5 µM; with 786-0 renal, 9.33 µM; in the assay with CAKI-1 renal it was 9.99 µM; in the assay on KM12 colon, 5.33 µM; in the assay on OVCAR-3 ovarian, 15.1 µM; in the assay on MCF7 breast it was 12.2 µM. The TGI turned out to be 8.77 µM in the assay on OVCAR-4 ovarian, 15.1 µM with SK-MEL-28 melanoma, 11.2 µM in the assay on UO-31 renal and 14.7 µM in the assay on COLO 205 colon.
In the case of `COc1cc(C2c3cc4c(cc3OC(N3CCCC3)C2C)OCO4)cc(OC)c1O` (stereo not given), the total growth inhibition concentration (TGI) was 62.4 µM with SK-OV-3 ovarian; 59.5 µM in the assay with 786-0 renal; above 95.1 µM in the assay on CAKI-1 renal; above 100 µM in the assay with KM12 colon; above 65.5 µM in the assay on OVCAR-3 ovarian; above 100 µM in the assay on MCF7 breast. Moreover, the total growth inhibition concentration (TGI) with OVCAR-4 ovarian is above 100 µM; with SK-MEL-28 melanoma it was above 100 µM; in the assay with UO-31 renal, above 100 µM; in the assay on COLO 205 colon it was 63 µM.
In the case of `NC(N)=NCCN=C(N)N`, the TGI in the assay with SK-OV-3 ovarian, with 786-0 renal, in the assay with CAKI-1 renal, with KM12 colon, in the assay with OVCAR-3 ovarian and with MCF7 breast was above 100 µM throughout. Moreover, the TGI in the assay on OVCAR-4 ovarian, with SK-MEL-28 melanoma, in the assay on UO-31 renal and in the assay on COLO 205 colon was above 100 µM throughout.
With `CN(c1ccc(Cl)cc1)S(=O)(=O)c1cccc([N+](=O)[O-])c1`, the concentration for total growth inhibition (TGI) in the assay on SK-OV-3 ovarian, in the assay on 786-0 renal, in the assay with CAKI-1 renal, in the assay with KM12 colon, in the assay with OVCAR-3 ovarian and in the assay with MCF7 breast was above 100 µM throughout. Also, the TGI in the assay on OVCAR-4 ovarian, in the assay with SK-MEL-28 melanoma, in the assay on UO-31 renal and with COLO 205 colon was above 100 µM throughout.
For the compound `CN(c1ccc(Cl)cc1)S(=O)(=O)c1ccc([N+](=O)[O-])cc1`, the TGI in the assay with SK-OV-3 ovarian, in the assay on 786-0 renal, with CAKI-1 renal, with KM12 colon, with OVCAR-3 ovarian and with MCF7 breast was above 100 µM throughout. Besides, the TGI in the assay on OVCAR-4 ovarian, in the assay with SK-MEL-28 melanoma, in the assay on UO-31 renal and in the assay with COLO 205 colon was above 100 µM each time.
For the compound `COc1ccc(/C=C(/C(=O)c2ccc(Cl)cc2)N2C=CC=CC2=C(C#N)C#N)cc1OC`, the TGI in the assay with SK-OV-3 ovarian was above 82.1 µM; in the assay on 786-0 renal it was 5.29 µM; with CAKI-1 renal, 5.69 µM; in the assay with KM12 colon it was 42.1 µM; with OVCAR-3 ovarian, 15.2 µM; in the assay on MCF7 breast, 16.9 µM. The concentration for total growth inhibition (TGI) stood at 20.5 µM with OVCAR-4 ovarian, 11.5 µM with SK-MEL-28 melanoma, 3.44 µM in the assay on UO-31 renal and 3.32 µM with COLO 205 colon.
